Reference: patent US20070105924A1 (priority 2005, published 2007)

Assays:
GABA-AT [1] = molecular target: T1, GABA-AT (Sus scrofa, UniProt P80147); assay: Preliminary substrate activity test with [14C]-labeled α-ketoglutarate; type: biochemical, pig; conditions: for Converted α-KG: incubation time 48 h, GABA-AT 0.7 μM, substrate 2.5 mM, α-KG 2.9 mM; for substrate activity for GABA-AT (in words): preliminary test, 48 h incubation
Source text: Tetrazole derivative 5 was the most efficient of the synthesized substrates. The tetrazole group was the best bioisostere for the carboxylic acid group in this series of compounds tested.

[2] = isosteric functionality compared with a carboxylic group; cited from earlier work
GABA-AT [3] = molecular target: T1, GABA-AT; assay: Time-dependent inhibition of GABA-AT (Kitz and Wilson replot); type: biochemical, pig; conditions: for time-dependent inhibition of GABA-AT (in words): 9 and 10 compared with 8 at the same concentration
Method: Aliquots (20 μL) were withdrawn at timed intervals and were added immediately to the assay solution (575 μL) followed by the addition of excess SSDH (5 μL). The reaction rates were measured by a UV-vis spectrophotometer at 340 nm. […] A Kitz and Wilson replot was used to determine the kinetic constants kinact and KI, as referenced above.

GABA-AT [4] = molecular target: T1, GABA-AT; assay: Time-independent inhibition of GABA-AT; type: biochemical, pig; conditions: 1-10 mM inhibitor, 25° C., read-out: estimated IC50
Source text: The percentage of remained enzyme activity was obtained by comparison to that of an untreated enzyme control. The logarithm of the percentage of remained activity is plotted versus the concentration of the inhibitors to calculate IC50 values.

[5] = time-dependent inhibition, 25 ° C., pH 8.5

T1 sequence (P80147 29-500): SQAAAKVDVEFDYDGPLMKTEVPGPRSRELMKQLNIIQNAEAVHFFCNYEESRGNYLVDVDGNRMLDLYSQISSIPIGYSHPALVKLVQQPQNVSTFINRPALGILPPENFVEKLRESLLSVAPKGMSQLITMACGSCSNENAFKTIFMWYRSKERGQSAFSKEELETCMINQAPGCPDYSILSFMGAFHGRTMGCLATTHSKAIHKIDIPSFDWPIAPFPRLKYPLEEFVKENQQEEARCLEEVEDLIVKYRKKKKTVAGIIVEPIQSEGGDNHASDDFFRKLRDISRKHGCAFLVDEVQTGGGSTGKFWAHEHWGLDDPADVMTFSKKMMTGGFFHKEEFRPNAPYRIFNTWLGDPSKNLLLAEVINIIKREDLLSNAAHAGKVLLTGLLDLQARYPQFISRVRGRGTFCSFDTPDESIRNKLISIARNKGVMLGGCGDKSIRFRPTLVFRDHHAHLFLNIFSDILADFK

SMILES | Converted α-KG (GABA-AT [1]) | substrate activity for GABA-AT (in words) (GABA-AT [1]) | time-dependent inhibition of GABA-AT (in words) (GABA-AT [3]) | further results
COC(=O)NC(=O)CCN [Compound 2, Methyl β-alanylcarbamate] | 1.3% | substrates for GABA-AT | – | pKa [2]: ~8
CS(=O)(=O)NC(=O)CCN [Compound 3, Methyl b-alanylsulfonamide] | 6.4% | substrates for GABA-AT | – | pKa [2]: comparable to that of a carboxylic acid
NCc1ccc2[nH]ccc2c1 [Compound 4, Indole-5-methanamine] | 0.1% | little or no substrate activity | – | –
NCCc1nnn[nH]1 [Compound 5, 1H-Tetrazole-5-ethanamine] | 20% | substrates for GABA-AT | – | –
C=CC(N)CCc1nnn[nH]1 (stereo not drawn) [Compound 8, 1H-Tetrzole-5-(α-vinyl-propanamine)] | – | – | showed time-dependent inhibition | times less efficient (kinact/KI) than vigabatrin (GABA-AT [3]; relative to racemic vigabatrin): 6.6 times; kinact/KI (GABA-AT [3]; time-dependent inhibition): 2.17 M⁻¹ s⁻¹; Ki (GABA-AT [3]; [5]): 5.6 mM; kinact (GABA-AT [3]; [5]): 0.0122 s⁻¹
C=CC(N)CCc1nnn(C)n1 (stereo not drawn) [Compound 9, 2-Methyl-2H-tetrazole-5-(α-vinyl-propanamine)] | – | – | Neither 9 nor 10 showed time-dependent inhibition | IC50 (GABA-AT [4]): > 10 mM
C=CC(N)CCc1nnnn1C (stereo not drawn) [Compound 10, 1-methyl-1H-tetrazole-5-(α-vinyl-propanamine)] | – | – | Neither 9 nor 10 showed time-dependent inhibition | IC50 (GABA-AT [4]): > 10 mM
NCCCC(=O)O [GABA, γ-aminobutyric acid, reference compound] | 25% | – | – | –
